From patent publication US11197891B2, “Therapies with lanthionine C-like protein 2 ligands and cells prepared therewith” (Landos Biopharma, Inc., priority 2017, dated 2021)
“Also recorded” adds a separate entry of the source.

What was measured:
Mdr1a−/− mice = experiment: Mdr1a−/− model of colitis (IBD); assay type: in vivo
Excerpt: Mdr1a−/− model. Mdr1a−/− mice develop spontaneous colitis. […] Mice were weighed and scored weekly to monitor the development of colitis. At 10 weeks of age, Mdr1a−/− were sacrificed for the collection of tissue for downstream assay. DSS model. Lancl2^ΔT and Lancl2-expressing controls were given dextran sulfate sodium in drinking water for seven days. Following seven days, standard drinking water was returned. Mice were weighed and scored daily. Mice were euthanized for tissue collection at 7 and 10 days of experimental timeline. Adoptive transfer model. WT and Lancl2−/− donor spleens were crushed and enriched for CD4+ fraction by magnetic sorting. CD4+CD45RB^hiCD25− (Teff) and CD4+CD45RB^loCD25+ (Treg) cells were sorted by a FACSAria cell sorter. Based on indicated experimental group, Rag2−/− recipient mice received 4×10^5 Teff and 1×10^5 Treg cells from WT or Lancl2−/− origin by intraperitoneal injection. […] Mice were weighed and scored weekly until euthanasia at 8 weeks post-transfer.
Colons and mesenteric lymph nodes (MLN) were collected into RPMI/FBS buffer containing collagenase (300U/mL) and DNase (50U/mL) for digestion. Following filtration of the resulting single cell suspensions, immune cells were purified by Percoll gradient. Cells were labeled with mixtures of extracellular (CD45, CD3, CD4, CD8, CD19, NK1.1, CD25, F4/80, CD11b, CX3CR1, CD64) and intracellular (Tbet, RORγT, FOXP3, IFNγ, IL17, IL10) antibodies in a sequential live staining in 96-well plates. Data was acquired using a FACS Celesta flow cytometer with FACSDiva software.
Total RNA from colon and cells was generated using the Qiagen RNeasy mini kit. cDNA was generated using the BioRad iScript cDNA synthesis kit. Standard curves were generated by serial dilution of purified product from a standard PCR reaction with Taq DNA polymerase followed by purification using the Qiagen MinElute PCR purification kit. Expression levels were obtained from quantitative real-time PCR with SybrGreen supermix on a BioRad CFX96 Thermal cycler followed by normalization to expression of β-actin as described previously.
H&E stained colonic sections were prepared from portions of colons collected into 10% buffered formalin and embedded in paraffin. Slides were examined by a board-certified veterinary pathologist via an Olympus microscope and images were collected with Image-Pro software. Samples were scored (0-4) for leukocytic infiltration, epithelial erosion and mucosal thickening.

[1] = test system: C. difficile strain VPI 10463 (ATCC 43255); experiment: C. difficile infection animal model; assay type: in vivo, mice; conditions: 8 mg/kg/d after infection
LANCL2 = target: T1, LANCL2 (Homo sapiens, UniProt Q9NS86); experiment: Surface plasmon resonance (SPR) binding to LANCL2; conditions: Tables 1A and 1B; read-out: SPR Affinity to LANCL2 (Kd)
T1 sequence (Q9NS86 1-450): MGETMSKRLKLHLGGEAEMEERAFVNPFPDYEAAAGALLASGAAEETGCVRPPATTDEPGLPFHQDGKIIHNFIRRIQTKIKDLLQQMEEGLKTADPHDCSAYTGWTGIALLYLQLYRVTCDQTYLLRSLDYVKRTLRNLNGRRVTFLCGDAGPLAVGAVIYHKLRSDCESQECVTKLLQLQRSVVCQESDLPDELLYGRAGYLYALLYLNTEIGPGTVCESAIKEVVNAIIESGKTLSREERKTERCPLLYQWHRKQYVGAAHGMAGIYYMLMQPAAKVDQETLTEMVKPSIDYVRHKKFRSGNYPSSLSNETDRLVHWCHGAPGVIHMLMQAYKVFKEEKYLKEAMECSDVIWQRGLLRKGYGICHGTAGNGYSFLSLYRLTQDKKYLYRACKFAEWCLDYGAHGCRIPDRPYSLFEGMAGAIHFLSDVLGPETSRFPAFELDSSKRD

[2] = test system: CD4+ T cells co-cultured with in vitro differentiated Tregs; experiment: Co-assay of CD4+ T cells and BT-11 pre-treated Treg cells; assay type: cell-based, mice
Description: (§1) Spleens from WT and Lancl2−/− mice were excised and crushed to generate a single cell suspension. CD4+ T cell fraction was enriched by negative selection via magnetic sorting with the BD IMag system. Naïve CD4+ T cells were obtained by incubation with a biotinylated CD62L antibody followed by conjugation to streptavidin coated magnetic beads. Naïve cells were incubated for 48 hours within anti-CD3 coated tissue culture plates in complete IMDM media containing all-trans retinoic acid and purified TGF-β to stimulate differentiation into Tregs. […] Metabolic modulators, PS-48 (5 μM), DASA-58 (10 μM), and thapsigargin (10 nM), were added at 0 h. […] Six hours prior to assay, cells were stimulated with PMA and ionomycin. Cells were collected from plate for downstream analysis by flow cytometry, gene expression and metabolic assay.
After two days cells were collected and plated with freshly collected CFSE-labeled CD4+ T cells.

[3] = test system: in vitro differentiated Tregs; experiment: Gene expression of Treg stability genes in in vitro differentiated Tregs; assay type: cell-based, mice; conditions: WT Tregs
Description: Total RNA from colon and cells was generated using the Qiagen RNeasy mini kit. cDNA was generated using the BioRad iScript cDNA synthesis kit. Standard curves were generated by serial dilution of purified product from a standard PCR reaction with Taq DNA polymerase followed by purification using the Qiagen MinElute PCR purification kit. Expression levels were obtained from quantitative real-time PCR with SybrGreen supermix on a BioRad CFX96 Thermal cycler followed by normalization to expression of β-actin as described previously [33].
Spleens from WT and Lancl2−/− mice were excised and crushed to generate a single cell suspension. CD4+ T cell fraction was enriched by negative selection via magnetic sorting with the BD IMag system. Naïve CD4+ T cells were obtained by incubation with a biotinylated CD62L antibody followed by conjugation to streptavidin coated magnetic beads. Naïve cells were incubated for 48 hours within anti-CD3 coated tissue culture plates in complete IMDM media containing all-trans retinoic acid and purified TGF-β to stimulate differentiation into Tregs [18]. […] Metabolic modulators, PS-48 (5 μM), DASA-58 (10 μM), and thapsigargin (10 nM), were added at 0 h. […] Six hours prior to assay, cells were stimulated with PMA and ionomycin. Cells were collected from plate for downstream analysis by flow cytometry, gene expression and metabolic assay. […]

[4] = test system: Lancl2ΔT and Lancl2-expressing control mice challenged with DSS; experiment: DSS model of colitis; assay type: in vivo
[5] = test system: naïve CD4+ T cells isolated from human PBMCs; experiment: Human naïve CD4+ T cells differentiated into Tregs; assay type: cell-based; conditions: differentiated into Tregs in presence of BT-11, dose dependent
Description: (§2) Fresh de-identified whole blood was obtained from commercial vendor. Blood was diluted and purified for PBMC fraction by LeukoSep tube. Remaining red blood cells were lysed by hypotonic lysis. […] For siRNA experiments, cells were first incubated with an OriGene 3-mer LANCL2 siRNA or scrambled control suspended within ViromerGreen transfection reagent for 6 hours. […] Cells were stimulated with PMA and ionomycin six hours prior to assay.
(§3) Whole blood was obtained from Crohn's disease patients, clinically categorized as mild to moderate disease.

[6] = test system: in vitro differentiated Tregs; experiment: STAT5a and FOXO1 phosphorylation by Western blot in in vitro differentiated Tregs; assay type: cell-based, mice
Description: Cells were also differentiated in the presence of inhibitors for PTEN (SF1670) or STATS (STAT5i).

CD4+ T cells = experiment: Differentiation of CD4+ T cells into Tregs with metabolic modulators; assay type: cell-based, mice; conditions: BT-11 with PS-48 (5 μM), DASA-58 (10 μM) or thapsigargin (10 nM)
Description: as §1

[7] = test system: PBMCs from Crohn's disease donors; experiment: PBMCs isolated from Crohn's disease donors, 24 hour culture; assay type: cell-based, human
Description: as §2, §3

Naïve CD4+ T cells = experiment: Differentiation of naïve CD4+ T cells into Tregs with IL-2 or IL-12 (flow cytometry); assay type: cell-based, mice; conditions: media containing IL-2 or IL-12, inhibitor SF1670 or STAT5i
Description: Naïve CD4+ T cells were isolated from the spleens of mice by magnetic sorting. The isolated cells were incubated in anti-CD3/anti-CD28 coated 96 well plates in Treg differentiation media. The Treg differentiation media was Iscove's Modified Dulbecco's Medium (IMDM) media (ThermoFisher Scientific) supplemented with fetal bovine serum, HEPES, penicillin/streptomycin, L-glutamine, and differentiation agents. The Treg differentiation agents were 10 nM all-trans-retinoic acid and 5 ng/mL TGF-β. Additional experiments were conducted comparing differentiation in the Treg differentiation media with and without the addition of 10 ng/mL IL-2 or IL-12. […] Prior to assay, cells were stimulated with PMA and ionomycin for 6 hours.
Colonic lamina propria lymphocytes and cultured cells were plated in 96 well plates (6×10^5 cells/well) and processed for immunophenotyping by flow cytometry as previously described. Briefly, cells were incubated with fluorochrome conjugated antibodies to extracellular markers: CD45, CD4, CD3, CD25, CD8. Samples needing a secondary staining were incubated with secondary antibodies, or streptavidin-conjugated fluorochrome. The samples were then fixed and permeabilized. Cells were incubated with antibodies to intracellular markers: Tbet, IFNγ, IL10, FOXP3, IL17, RORγT. Data was acquired with a BD FACS Celesta flow cytometer and analyzed using FACS Diva software (BD Pharmingen). […]

[8] = WT Treg pre-treated with BT-11, 24 h co-assay

O=C(c1cccc(-c2nc3ccccc3[nH]2)n1)N1CCN(C(=O)c2cccc(-c3nc4ccccc4[nH]3)n2)CC1 [BT-11, N,N-Bis(benzimidazolylpicolinoyl)piperazine]
colonic leukocytic infiltration, epithelial erosion and mucosal thickening (Mdr1a−/− mice; 8 mg/kg oral daily, at 10 weeks of age): reduced colonic leukocytic infiltration, epithelial erosion and mucosal thickening
disease activity (development of disease) (Mdr1a−/− mice; 8 mg/kg oral daily, six weeks from four weeks of age): prevented the development of disease throughout the six-week period; also recorded: decreases disease activity index
efficacy when given therapeutically (Mdr1a−/− mice; beginning after presentation of symptoms at 7 weeks of age): displays efficacy when given therapeutically
percentages of IL-10-producing cellular subsets (CX3CR1+ macrophages, Treg cells) (Mdr1a−/− mice; colonic LP and MLN, 8 mg/kg oral daily): increased percentages of IL-10-producing cellular subsets
inflammatory cytokines IFNγ, IL17A, IL6, TNFα, MCP1 (Mdr1a−/− mice; colonic gene expression and cytometric bead array): Down-regulation of inflammatory cytokines
Th1 and Th17 cells in colonic lamina propria and mesenteric lymph nodes (Mdr1a−/− mice; flow cytometry, 8 mg/kg oral daily): significant (P<0.05) reductions
whole colon Lancl2 expression (Mdr1a−/− mice; oral treatment): upregulated whole colon Lancl2
burden of C. difficile within the colon [1]: did not induce a decrease in the burden of C. difficile
colonic pathology including infiltration of leukocytes [1]: reduced colonic pathology
mortality [1]: complete protection against mortality
neutrophils, Th1 and Th17 cells within the lamina propria [1]: reduced neutrophils, Th1 and Th17 cells
regulatory T cells within the lamina propria [1]: increase in regulatory T cells
disease activity scores ([1]; from day 2 onward): lower disease activity scores
Kd (LANCL2): 7.7 µM
proliferative index and TNFα/IFNγ expression ([2]; KO (Lancl2−/−) Treg pre-treated with BT-11): did not induce changes in either measure
expression of TNFα and IFNγ by cytometric bead array [2, 8]: lowered
proliferative index of CD4+ T cells (CFSE) [2, 8]: lowered the proliferative index
retention of Treg (FOXP3+IL10+) phenotype ([2]; WT Treg pre-treated with BT-11, after 24 h co-assay): greater retention of Treg (FOXP3+IL10+) phenotype
expression of P2rx7 ([3]; 0.625 μM BT-11): significantly upregulated (P<0.05)
expression of Socs2, Capn3, Irf7 and Lag3 ([3]; 48 hours of BT-11 treatment, significant at 0.625 μM): dose-dependent increase
Th1 and Th17 cells in colonic LP ([4]; Lancl2ΔT mice treated with BT-11): failed to induce characteristic reductions in Th1 and Th17 cells
efficacy in DSS model with loss of LANCL2 in CD4+ T cells ([4]; Lancl2ΔT mice, seven-day DSS, oral BT-11): abrogated the efficacy of BT-11
stability-associated Treg markers (Lag3, Socs2, Irf7, P2rx7, Capn3, Ikzf2) [5]: upregulation of stability-associated Treg markers
STAT5a phosphorylation ([6]; base Treg differentiation media and with IL-2 or IL-12): phosphorylated in a greater ratio
FOXO1 phosphorylation ([6]; base media and media containing IL-2, but not IL-12): similarly affected
Treg cell differentiation (CD4+ T cells): increased differentiation of Tregs
percentage of IL-10+ and FOXP3+ cells ([7]; 24 hour culture with BT-11): higher percentage of IL-10+ and FOXP3+ cells
percentages of TNFα+ and IFNγ+ cells ([7]; 24 hour culture with BT-11): lower percentages of TNFα+and IFNγ+ cells
commitment to effector phenotypes (IFNγ+ cells) ([7]; augmented (external) PEP concentration): prevented cells from an increased commitment to effector phenotypes

CC(C)(C)C(=O)Nc1ccc2c(c1)C(=O)C(=O)c1ccccc1-2 [SF1670, reference compound]
effects of BT-11 on CD25+ FOXP3+ and CD25+ Tbet+ cells with inhibitors (Naïve CD4+ T cells): only prevented effects of BT-11 on CD25+ Tbet+ cells in IL-2 containing media
